row,melting point,Compound
1,132 to 134 °C,Nc1cc(-c2cc(Cl)cc(Cl)c2)no1
2,104 to 106 °C,CC(C)Cn1c(N)c(C(=O)CCl)c(=O)n(C)c1=O
3,169 to 171 °C,CC(Cn1cncn1)C(N)=S (stereo not drawn)
4,147 to 149 °C,CC(C)(C)OC(=O)N1CCC(OC(=O)c2ccc(N)cc2)CC1
5,302 to 304 °C,Cc1nc2cc(O)nn2c(C)c1CCC(=O)O
6,149 to 151 °C,O=C(O)C1CC(=O)N(c2ccc(Cl)cc2)C1 (stereo not drawn)
7,172 to 174 °C,COc1ccccc1NS(=O)(=O)c1ccc(O)c(C(=O)O)c1
8,129 to 131 °C,Cc1ncc(C(=O)O)c(Br)c1Cl
9,170 to 172 °C,O=C(CCl)Nc1nc2ccc(F)cc2s1
10,176 to 178 °C,O=C(O)[C@@H]1CCCN1C(=O)Nc1ccc2c(c1)OCCO2
11,29 to 31 °C,CC(C)(O[Si](C)(C)C)C(N)=O
12,82 to 84 °C,Cc1ncsc1-c1nc(CCl)no1
13,258 to 260 °C,O=C(O)c1cnn(-c2ccc([N+](=O)[O-])cc2)c1
14,165 to 167 °C,O=C(O)c1ccccc1NS(=O)(=O)c1ccc(F)cc1
15,76 to 78 °C,COc1cc(Cl)c(S(=O)(=O)Cl)cc1Cl
16,202 to 204 °C,CC(NS(=O)(=O)c1ccc(N)cc1)C1CC2CCC1C2 (stereo not drawn)
17,80 to 82 °C,O=C(CO)N1CCCc2ccccc21
18,71 to 73 °C,Nc1cc(Br)c(F)cc1Cl
19,157 to 162 °C,CC(C)(C)c1cc(C(=O)O)c(O)c(C(C)(C)C)c1
20,65 to 67 °C,O=C(c1cccc(S(=O)(=O)Cl)c1)N1CCCC1
21,45 to 47 °C,Cc1nccn1-c1ccc(CN)cn1
22,151 to 153 °C,COc1ccc(O)c(C(N)=O)c1
23,85 to 90 °C,COC(=O)C(=O)CC(=O)c1cc(OC)ccc1OC
24,57 to 59 °C,Cn1ccc2ccnc(Cl)c21

row,melting point,Compound
1,134 to 136 °C,Cc1nc(Cl)ccc1CC(=O)O
2,139 to 141 °C,O=Cc1ccc(-n2ccnc2)nc1
3,39 to 41 °C,N#CC(N)Cc1ccccc1 (stereo not drawn)
4,168 to 170 °C,COc1cc(NC(=O)NN)c(OC)cc1Cl
5,178 to 180 °C,CNC(=O)c1cccc(N)c1C
6,173 to 175 °C,NNC(=O)c1nnc(-c2ccccc2)o1
7,130 to 135 °C,CC(Cl)C(=O)Nc1ccc(Cl)c(C(F)(F)F)c1 (stereo not drawn)
8,78 to 80 °C,CCC(C#N)NC(=O)OC(C)(C)C (stereo not drawn)
9,92 to 94 °C,NC(=O)COCc1ccccc1
10,159 to 161 °C,Nc1cc(O)cc(F)c1
11,185 to 187 °C,CC12CCC(CC1=NNC(=O)CCl)C2(C)C (stereo not drawn)
12,339 to 341 °C,Cc1c(C(=O)O)oc2c(F)cc(F)cc12
13,147 to 150 °C,N#Cc1cc(C(=O)c2ccccc2O)cn(-c2ccccn2)c1=O
14,54 to 56 °C,Cc1cc(S(=O)(=O)Cl)cnc1Cl
15,124 to 126 °C,NC(CN1CCCCCC1)=NO
16,107 to 109 °C,Oc1ccc(CNCc2ccco2)cc1
17,49 to 51 °C,Cc1ccc(N)c(N)c1C
18,108 to 110 °C,Cc1ccc(S(=O)(=O)OCc2nc3ccccc3s2)cc1
19,159 to 161 °C,Cc1cccc(COc2ccc(S(N)(=O)=O)cc2)c1
20,186 to 188 °C,Fc1ccc(-c2nnc(Cl)c3ccccc23)cc1
21,39 to 41 °C,C=CC(CC(=O)O)c1ccccc1 (stereo not drawn)
22,141 to 143 °C,O=C(O)c1cnc2c(cnn2C2CCCC2)c1
23,134 to 136 °C,Cc1ccc(Cl)c(OCC(=O)O)c1
24,169 to 171 °C,Nc1nnc(Cc2ccc(F)cc2)o1

row,melting point,Compound
1,108 to 110 °C,Sc1nnc(C2CC2)s1
2,149 to 151 °C,O=Cc1cnn2cccnc12
3,155 to 157 °C,N#CCc1nc2cc(Cl)ccc2s1
4,55 to 57 °C,CC(O)(CN)c1cccs1 (stereo not drawn)
5,240 to 242 °C,O=C(Nc1ccsc1C(=O)O)c1ccc(Br)cc1
6,128 to 130 °C,O=C(c1ccc(Cl)cc1)c1ccc2c(c1)OCO2
7,170 to 172 °C,Cc1noc2nc(-c3ccccc3C(F)(F)F)cc(C(=O)O)c12
8,156 to 158 °C,O=c1c2ccc(C(F)(F)F)cc2nc2n1CCC2
9,129 to 131 °C,Cn1cc(Br)cc1C(=O)O
10,179 to 181 °C,O=C(O)c1[nH]c2ccccc2c1Cl
11,147 to 149 °C,COCCCN1C(=O)c2ccc(C(=O)O)cc2C1=O
12,224 to 226 °C,O=[N+]([O-])c1ccc(-c2c[nH]cn2)cc1
13,204 to 206 °C,Nc1ccc2c[nH]nc2c1
14,171 to 173 °C,CSCCC(NC(=O)c1ccccc1Br)C(=O)O (stereo not drawn)
15,159 to 161 °C,c1ccc(-c2nc[nH]n2)nc1
16,97 to 99 °C,O=[N+]([O-])c1ccc(OC2CCNCC2)cc1
17,204 to 206 °C,COc1ccc(NS(=O)(=O)c2ccc(NN)c([N+](=O)[O-])c2)cc1
18,154 to 156 °C,O=C1OCCN1c1ccc([N+](=O)[O-])cc1
19,100 to 102 °C,O=C(CN1CCCC(C(=O)O)C1)Nc1ccccc1 (stereo not drawn)
20,119 to 121 °C,O=Cc1sc(N2CCCC2)nc1Cl
21,166 to 175 °C,COC(=O)CCc1c(C)nn(-c2ccc(C(=O)O)cc2)c1C
22,135 to 137 °C,O=C(O)C(Oc1ccc(Br)cc1Cl)c1ccccc1 (stereo not drawn)
23,97 to 99 °C,CC(C)(C)OC(=O)NCC1CCCCS1(=O)=O (stereo not drawn)
24,94 to 96 °C,Cc1cc(F)ccc1N1CCCC(Br)C1=O (stereo not drawn)

row,melting point,Compound
1,129 to 131 °C,CCOC(=O)c1cnn2c1nc(Cl)c1ccccc12
2,51 to 53 °C,O=Cc1ccccc1OCC(F)(F)F
3,125 to 127 °C,NS(=O)(=O)N1CCCc2ccccc21
4,60 to 62 °C,O=C(CCl)NCCC1=CCCCC1
5,137 to 139 °C,Nc1nonc1-c1cccc(Br)c1
6,145 to 147 °C,O=C(O)CCc1nc2cc(Cl)ccc2s1
7,138 to 140 °C,CCc1ccc2c(CCl)cc(=O)oc2c1
8,194 to 196 °C,Nc1ccc(-c2nc3cc(F)ccc3[nH]2)cc1
9,34 to 36 °C,CCOc1cccc(F)c1[N+](=O)[O-]
10,171 to 173 °C,CC(NC(N)=O)C(=O)O (stereo not drawn)
11,94 to 96 °C,CN(CC(=O)O)S(N)(=O)=O
12,28 to 30 °C,CCOCCOc1ccc(Br)cc1C=O
13,67 to 69 °C,Cc1cc(N)ccc1N1CCSCC1
14,145 to 147 °C,CC(C)CC1(C)NC(=O)NC1=O (stereo not drawn)
15,219 to 221 °C,O=C(O)c1ccc(Cc2nnc[nH]2)cc1
16,76 to 78 °C,CC(C)(C)OC(=O)N1CCCC(COS(C)(=O)=O)C1 (stereo not drawn)
17,84 to 86 °C,CS(=O)(=O)N1CCC(N=C=O)CC1
18,34 to 36 °C,CS(=O)(=O)CBr
19,225 to 227 °C,CN1C(=O)CC(C(=O)O)C1c1ccc(Cl)c(F)c1 (stereo not drawn)
20,124 to 126 °C,O=C1c2ccc(S(=O)(=O)Cl)cc2CCC1Cl (stereo not drawn)
21,48 to 50 °C,Cc1cc(Cl)cc(N)c1I
22,100 to 102 °C,CCc1nnc2ccc(Cl)nn12
23,268 to 270 °C,O=C1COc2ccncc2N1
24,111 to 113 °C,Nc1cccc(C(=O)Nc2ccccn2)c1

row,Compound,melting point
1,c1ccc2oc(C3CCNCC3)nc2c1,111 to 113 °C
2,CC1CNC(=Nc2cccc3cccnc23)S1 (stereo not drawn),92 to 94 °C
3,COC(=O)c1oc(CCl)cc1C,53 to 55 °C
4,Cc1cccc2[nH]cc(CCN)c12,108 to 110 °C
5,CSc1ccc(C#N)c(Cl)c1,117 to 119 °C
6,Nn1cncn1,64 to 66 °C
7,COCCNC(=O)C(C)Cl (stereo not drawn),28 to 30 °C
